From ChEMBL document CHEMBL1201862, “PubChem BioAssay data set” (2004)
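Exposure lasted 48 hours, with cells grown in 96-well plates and compounds tested at five concentrations. At the GI50, growth is halved.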 Active and inactive are the calls of the source. Rule as the data show it: active = GI50 up to about 1.1 µM and inactive = higher.

Assays:
Experiment in all cases: NCI anticancer screen, dose series, 48 h
MDA-MB-435 = tested on: MDA-MB-435
RXF 393 = tested on: RXF 393
SF-295 = tested on: SF-295
SK-MEL-2 = tested on: SK-MEL-2
MCF7 = tested on: MCF7
BT-549 = tested on: BT-549
Hs-578T = tested on: Hs-578T
UACC-62 = tested on: UACC-62
U-251 = tested on: U-251
SK-OV-3 = tested on: SK-OV-3
HT-29 = tested on: HT-29
A549 = tested on: A549
ACHN = tested on: ACHN
DU-145 = tested on: DU-145
UACC-257 = tested on: UACC-257
OVCAR-8 = tested on: OVCAR-8
CAKI-1 = tested on: CAKI-1
K562 = tested on: K562
HCC 2998 = tested on: HCC 2998

SMILES	GI50 (MDA-MB-435)	GI50 (RXF 393)	GI50 (SF-295)	GI50 (SK-MEL-2)	GI50 (MCF7)	GI50 (BT-549)	GI50 (Hs-578T)	GI50 (UACC-62)	GI50 (U-251)	GI50 (SK-OV-3)	GI50 (HT-29)	GI50 (A549)	GI50 (ACHN)	GI50 (DU-145)	GI50 (UACC-257)	GI50 (OVCAR-8)	GI50 (CAKI-1)	GI50 (K562)	GI50 (HCC 2998)
N#Cc1c(N)nc(SCc2ccccc2)c(C#N)c1-c1ccc(O)cc1	11.6 µM (inactive)	15.9 µM (inactive)	13.6 µM (inactive)	15.2 µM (inactive)	13.9 µM (inactive)	11.6 µM (inactive)	29.2 µM (inactive)	15.7 µM (inactive)	13.9 µM (inactive)	15.5 µM (inactive)	8.22 µM (inactive)	11.7 µM (inactive)	13.2 µM (inactive)	13.5 µM (inactive)	> 37.5 µM (inactive)	15 µM (inactive)	13.5 µM (inactive)	11 µM (inactive)	> 38.5 µM (inactive)
COc1cc2cc(C(=O)N3CC(CCl)c4ccc(NCCN)cc43)[nH]c2c(OC)c1OC (centres undefined)	0.2 µM (active)	0.105 µM (active)	0.197 µM (active)	0.179 µM (active)	0.0361 µM (active)	0.345 µM (active)	0.472 µM (active)	0.111 µM (active)	0.175 µM (active)	0.282 µM (active)	0.145 µM (active)	0.208 µM (active)	0.08 µM (active)	0.08 µM (active)	0.251 µM (active)	0.167 µM (active)	0.143 µM (active)	0.11 µM (active)	0.146 µM (active)
O=C1CS(=O)(=O)C(c2cccc(Oc3ccccc3)c2)N1c1ccc(Cl)cc1 (centres undefined)	17.1 µM (inactive)	18.6 µM (inactive)	26.5 µM (inactive)	15.2 µM (inactive)	13.8 µM (inactive)	24.7 µM (inactive)	30.1 µM (inactive)	8.71 µM (inactive)	19.1 µM (inactive)	49 µM (inactive)	25 µM (inactive)	30.8 µM (inactive)	19 µM (inactive)	67.3 µM (inactive)	14.8 µM (inactive)	18.8 µM (inactive)	15.6 µM (inactive)	14.5 µM (inactive)	3.4 µM (inactive)
CCOC(=O)c1[nH]cc(C)c1-c1c[nH]c2ccccc12	26 µM (inactive)	30.1 µM (inactive)	29 µM (inactive)	29.4 µM (inactive)	22.3 µM (inactive)	26.5 µM (inactive)	16.7 µM (inactive)	14.4 µM (inactive)	19.7 µM (inactive)	32.3 µM (inactive)	21.6 µM (inactive)	28.8 µM (inactive)	23 µM (inactive)	45 µM (inactive)	26.2 µM (inactive)	27.1 µM (inactive)	37.1 µM (inactive)	6.04 µM (inactive)	19.9 µM (inactive)
O=C(O)/C=C\C(=O)Nc1ccc2c(c1)-c1ccccc1C2	> 100 µM (inactive)	> 100 µM (inactive)	> 100 µM (inactive)	38.5 µM (inactive)	37.3 µM (inactive)	39.8 µM (inactive)	44.5 µM (inactive)	> 100 µM (inactive)	56.2 µM (inactive)	> 100 µM (inactive)	> 100 µM (inactive)	> 100 µM (inactive)	> 100 µM (inactive)	80.2 µM (inactive)	98.6 µM (inactive)	77.4 µM (inactive)	> 100 µM (inactive)	64.9 µM (inactive)	36.7 µM (inactive)
CCCCCCCCCCCC(=O)N(CCCCCCCCCCC(=O)O)CC(O)C(O)C(OC1OC(CO)C(O)C(O)C1O)C(O)CO (centres undefined)	> 100 µM (inactive)	> 100 µM (inactive)	> 100 µM (inactive)	> 100 µM (inactive)	> 100 µM (inactive)	> 100 µM (inactive)	> 100 µM (inactive)	> 100 µM (inactive)	> 100 µM (inactive)	> 100 µM (inactive)	> 100 µM (inactive)	> 100 µM (inactive)	> 100 µM (inactive)	> 100 µM (inactive)	> 100 µM (inactive)	> 100 µM (inactive)	> 100 µM (inactive)	95.1 µM (inactive)	> 100 µM (inactive)
